Where two headings read alike, the source gives them in different places.
Experiments:
[1] = test system: JAK1-dependent STAT6 phosphorylation downstream of IL-13 stimulation in BEAS-2B human bronchial epithelial cells; experiment: JAK1 pathway assay in BEAS-2B cells (IL-13-pSTAT6, MSD); type: cell-based; details: Homo sapiens, BEAS-2B, BEAS-2B cells, IL-13 stimulation; read-out: IL-13 p-STAT6 BEAS-2B IC50
Experimental: JAK1 Pathway Assay in Cell Lines was carried out as follows:
Inhibitor potency (EC50) was determined in cell-based assays designed to measure JAK1 dependent STAT phosphorylation.
In one assay approach, TF-1 human erythroleukemia cells obtained from the American Type Culture Collection (ATCC; Manassas, Va.) were used to measure JAK1-dependent STAT6 phosphorylation downstream of IL-13 stimulation. Prior to use in the assays, TF-1 cells were starved of GM-CSF overnight in OptiMEM medium (Life Technologies, Grand Island, N.Y.) supplemented with 0.5% charcoal/dextran stripped fetal bovine serum (FBS), 0.1 mM non-essential amino acids (NEAA), and 1 mM sodium pyruvate. The assays were run in 384-well plates in serum-free OptiMEM medium using 300,000 cells per well. In a second assay approach, BEAS-2B human bronchial epithelial cells obtained from ATCC were plated at 100,000 cells per well of a 96-well plate one day prior to the experiment. The BEAS-2B assay was run in complete growth medium (bronchial epithelial basal medium plus bulletkit; Lonza; Basel, Switzerland).
Test compounds were serially diluted 1:2 in DMSO and then diluted 1:50 in medium just before use. Diluted compounds were added to the cells, for a final DMSO concentration of 0.2%, and incubated for 30 min (for the TF-1 assay) or 1 hr (for the BEAS-2B assay) at 37° C. Then, cells were stimulated with human recombinant cytokine at their respective EC90 concentrations, as previously determined for each individual lot. Cells were stimulated with IL-13 (R&D Systems, Minneapolis, Minn.) for 15 min at 37° C. The TF-1 cell reactions were stopped by the direct addition of 10× lysis buffer (Cell Signaling Technologies, Danvers, Mass.), whereas the BEAS-2B cell incubations were halted by the removal of medium and addition of 1× lysis buffer. The resultant samples were frozen in the plates at −80° C. Compound mediated inhibition of STATE phosphorylation was measured in the cell lysates using MesoScale Discovery (MSD) technology (Gaithersburg, Md.).

[2] = target: isolated recombinant JAK2 kinase domain (Homo sapiens (Human), UniProt O60674); experiment: JAK2 enzyme assay (Caliper LabChip, Ki); type: biochemical
Chain of isolated recombinant JAK2 kinase domain (O60674 849-1124): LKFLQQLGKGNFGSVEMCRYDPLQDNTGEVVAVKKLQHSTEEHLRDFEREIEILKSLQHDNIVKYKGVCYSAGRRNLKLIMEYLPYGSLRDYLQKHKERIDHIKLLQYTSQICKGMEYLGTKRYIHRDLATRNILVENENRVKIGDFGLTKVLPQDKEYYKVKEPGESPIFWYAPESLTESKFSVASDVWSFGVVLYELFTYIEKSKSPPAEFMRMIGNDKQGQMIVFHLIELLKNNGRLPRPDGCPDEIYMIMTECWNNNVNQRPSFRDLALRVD
In short: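 Recombinant human JAK1 or JAK2 kinase domain phosphorylating a 5-carboxyfluorescein-labelled JAK3-derived peptide; 30 min at 22 °C, stopped with EDTA (50 mM final). Phosphorylated product measured as a fraction of total peptide by Caliper LabChip mobility shift.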

[3] = target: isolated recombinant JAK1 kinase domain (Homo sapiens (Human), UniProt P23458); experiment: JAK1 enzyme assay (Caliper LabChip, Ki); type: biochemical
Chain of isolated recombinant JAK1 kinase domain (P23458 875-1153): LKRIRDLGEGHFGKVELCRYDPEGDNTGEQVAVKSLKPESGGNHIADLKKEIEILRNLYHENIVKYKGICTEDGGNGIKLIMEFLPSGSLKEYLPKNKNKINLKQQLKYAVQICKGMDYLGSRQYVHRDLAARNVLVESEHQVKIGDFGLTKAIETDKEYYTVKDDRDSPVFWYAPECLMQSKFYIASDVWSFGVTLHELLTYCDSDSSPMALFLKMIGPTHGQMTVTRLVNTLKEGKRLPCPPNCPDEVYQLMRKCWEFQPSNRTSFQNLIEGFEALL
In short: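 Recombinant human JAK1 kinase domain phosphorylating an N-terminally 5-carboxyfluorescein-labelled JAK3-derived peptide, 30 min at 22 °C, stopped with EDTA (50 mM final). Phosphorylated fraction of total peptide read by Caliper LabChip mobility shift; Ki from Morrison tight-binding fit corrected for ATP competition (Ki=Ki,app/(1+[ATP]/Km,app)).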

Row | Structure (SMILES) | IC50 [1] [nM] | Ki [2] [nM] | Ki ([3]; read-out: JAK1 Ki) [nM] | Ki [3] [nM]
1 | N#CCC1(n2cc(C(N)=O)c(NC(=O)C3CC3)n2)CCN(Cc2ccccc2Cl)CC1 [Example 58] | 287 | 42.6 | 4.4 | 
2 | N#CCC1(n2cc(C(N)=O)c(NC(=O)C3CC3)n2)CCN(Cc2ccc(Cl)cc2)CC1 [Example 60] | 94 | 23.4 | 3.9 | 
3 | N#CCC1(n2cc(C(N)=O)c(NC(=O)C3CC3)n2)CCN(Cc2ccccc2C#N)CC1 [Example 64] | > 1000 | 83.5 | 7.3 | 
4 | N#CCC1(n2cc(C(N)=O)c(NC(=O)C3CC3)n2)CCN(Cc2ccc(C#N)cc2)CC1 [Example 66] | 910 | 50.2 | 4 | 
5 | CCS(=O)(=O)Nc1cccc(CN2CCC(CC#N)(n3cc(C(N)=O)c(NC(=O)C4CC4)n3)CC2)c1 [Example 75] | > 1000 | 14 | 2.7 | 
6 | CC(=O)Nc1cccc(CN2CCC(CC#N)(n3cc(C(N)=O)c(NC(=O)C4CC4)n3)CC2)c1 [Example 76] | > 1000 | 36.9 | 3.9 | 
7 | N#CCC1(n2cc(C(N)=O)c(NC(=O)C3CC3)n2)CCN(Cc2ccc(Br)c(F)c2)CC1 [Example 77] | 227 | 44.7 | 2.6 | 
8 | CS(=O)(=O)Nc1cccc(CN2CCC(CC#N)(n3cc(C(N)=O)c(NC(=O)C4CC4)n3)CC2)c1F [Example 78] | > 1000 | 4.9 | 2.9 | 
9 | CS(=O)(=O)Nc1cc(CN2CCC(CC#N)(n3cc(C(N)=O)c(NC(=O)C4CC4)n3)CC2)ccc1F [Example 79] | > 1000 | 14.2 | 3 | 
10 | CS(=O)(=O)Nc1cc(F)cc(CN2CCC(CC#N)(n3cc(C(N)=O)c(NC(=O)C4CC4)n3)CC2)c1 [Example 80] | > 1000 | 3.6 | 1.2 | 
11 | CC(=O)Nc1cc(CN2CCC(CC#N)(n3cc(C(N)=O)c(NC(=O)C4CC4)n3)CC2)ccc1Cl [Example 81] | > 1000 | 38.4 | 4.4 | 
12 | Cn1ccc(-c2ccc(CN3CCC(CC#N)(n4cc(C(N)=O)c(NC(=O)C5CC5)n4)CC3)cc2)n1 [Example 82] | 688 | 14.3 | 4.9 | 
13 | N#CCC1(n2cc(C(N)=O)c(NC(=O)C3CC3)n2)CCN(Cc2ccc(-n3cccn3)cc2)CC1 [Example 87] | 350 | 25.1 | 2.2 | 
14 | N#CCC1(n2cc(C(N)=O)c(NC(=O)C3CC3)n2)CCN(Cc2ccc(-n3nccn3)cc2)CC1 [Example 89] | 119 | 6.8 | 0.7 | 
15 | CC(C)S(=O)(=O)Nc1cccc(CN2CCC(CC#N)(n3cc(C(N)=O)c(NC(=O)C4CC4)n3)CC2)c1 [Example 94] | > 1000 | 21.8 | 4.1 | 
16 | N#CCC1(n2cc(C(N)=O)c(NC(=O)C3CC3)n2)CCN(Cc2ccc3c(c2)[nH]c2ccccc23)CC1 [Example 95] | 275 | 6.3 | 1.2 | 
17 | COC1CN([C@H]2CC[C@@](CC#N)(n3cc(C(N)=O)c(NC(=O)C4CC4)n3)CC2)C1 [Example 102] | 933 | 31.8 |  | 3.3
18 | N#CC[C@]1(n2cc(C(N)=O)c(NC(=O)C3CC3)n2)CC[C@H](N2CC3(CCC3)C2)CC1 [Example 107] | > 1000 | 43.1 |  | 3.3

Reference: US11731943B2, “Therapeutic compounds, compositions and methods of use thereof” (priority 2016, dated 2023)
